Measurements: ChEMBL document CHEMBL3507680, “University of Dundee, Gates Library screen for HepG2 cell viability”

Assay: Human HepG2 cell viability assay in 384 well format
Format: toxicity, cell-based
Set-up: dose 125 nL, time 70.5 hour; cytotoxicity at 70.5 h: concentration not given beside the values
Conditions: HepG2 cells, read-out: Inhibition

SMILES | cytotoxicity at 70.5 h [%]
CCn1nnnc1-c1cccc(NC(=O)CCOC(C)C)c1 | -7.16
COc1ncccc1NC(=O)N1CCCC(CNC(=O)OC(C)(C)C)C1 (stereo not given) | -6.55
COc1cc(C(=O)NCCc2ccc(OC)c(OC)c2)on1 | -2.98
COc1cc(C)c(C(C)Nc2ncc(C(N)=O)cc2Cl)cc1OC (stereo not given) | -12.8
Cc1ccc(N2C[C@H](C(=O)NCC3CC3)[C@@H]3CCO[C@@H]3C2)nn1 | -9.32
COc1ccc2[nH]c(CNc3cc(C4CCNCC4)nc(C)n3)cc2c1 | -3.5
C=C(C)COc1ccccc1CNCCc1c[nH]cn1 | 2.66
CCOC(=O)N1CC(=O)N(Cc2cccc(OC)c2OC)CC(O)C1 (stereo not given) | -5.06
O=C(c1cnccn1)N1CCc2onc(Cn3cccn3)c2C1 | -6.72
CCS(=O)(=O)c1ncc(CN(C)C)n1Cc1ccccc1 | -3.58
CCCN(CCC)C(=O)c1sc(C)nc1C | -7.05
O=C(N[C@@H]1CN(Cc2cccs2)[C@@H]2CCCO[C@@H]21)C1CC1 | -10.5
CC(=O)N1Cc2ccccc2C[C@H]1C(=O)Nc1ccccn1 | -12
O=C(CSc1nc2c(cnn2CCO)c(=O)[nH]1)N1CCCCCC1 | 13.2
COc1c(C)cnc(CN2CCOC(Cn3cc(C)cn3)C2)c1C (stereo not given) | 0.484
CC(C)CN1CCc2[nH]cnc2C12CCN(C(=O)c1cnn(C)c1)CC2 | -7.51
CC1CN(CCC(=O)NCCc2cccnc2)Cc2ccccc2O1 (stereo not given) | 9.39
CC(C)c1nc(C2CCCN(C(=O)c3ccc(N(C)C)nn3)C2)no1 (stereo not given) | -1.24
COCc1cccc(S(=O)(=O)NCc2cnn(C)c2C)c1 | -9.83
CC(NS(C)(=O)=O)C(=O)N(C)Cc1cnn(-c2ccc(F)cc2)c1 (stereo not given) | 3.12
COCCN1C2(CCN(C(=O)c3cccs3)C2)c2ccccc2S1(=O)=O (stereo not given) | 2.42
Cc1cnn(C2CCCN(C(=O)c3cn4cccnc4n3)C2)c1 (stereo not given) | -3.94
Cc1nc(COC[C@@H]2CCC[C@@]23CN(C)CCO3)cs1 | 4.91
CCCOCC(=O)N1CCc2c(cccc2S(=O)(=O)N2CCOCC2)C1 | 19.4
CCn1cc(CN(C)C(=O)c2cccc(CCC(C)(C)O)c2)cn1 | -3.4
CC(C)c1nnc2n1CCN(C(=O)Cc1csc(C(C)(C)C)n1)C2 | -8.69
CCN(CCO)C(=O)C1CCC(=O)N(Cc2cccc(OC)c2)C1 (stereo not given) | -13.2

SMILES | cytotoxicity at 70.5 h [%]
Cc1cn2c(n1)CCC(NC(=O)c1cc(C(C)C)no1)C2 (stereo not given) | -7.72
CC(C)CCNC(=O)C1CCCN1C(=O)Nc1cccc(F)c1 (stereo not given) | -6.59
CCOC(=O)N1CCN(CC(=O)Nc2nnc(CC)s2)CC1 | -4.24
O=C(C1CC1)N1CC[C@H](c2nnc(Cc3c[nH]c4ccccc34)o2)C1 | -1.09
CNc1cc2c(nn1)CCN(C(=O)c1ccc3c(c1)CCC3)C2 | -4.27
CS(=O)(=O)NCCCNC(=O)c1cccc(-n2cccc2)c1 | -1.21
CCOc1ccccc1NC(=O)N(CCO)Cc1ccsc1 | 2.23
CCc1nccn1-c1cncc(C2CCCN2Cc2ccccn2)n1 (stereo not given) | -7.66
Cc1ccc(S(=O)(=O)NCCCN2CCC(O)CC2)cc1Cl | 4.78
Cc1nc(N)c2ccc(C3CCCN3)nc2n1 (stereo not given) | -9.62
CC(C)N1CCC(Cc2cc(-c3cc(F)ccc3C(=O)O)ncn2)C1 (stereo not given) | -3
NC(=O)CN(CC(=O)NCCc1c(F)cccc1F)C1CCCC1 | 23.5
CCCS(=O)(=O)N1CCC2(CC1)COCCN(C(C)=O)C2 | -4.27
O=C(Cc1cc(-c2ccc3c(c2)OCO3)on1)NC1CCCC1 | -8.33
O=C(c1cc(Br)ccc1-n1cnnn1)N1CCCC1 | -3.68
Cc1noc(C)c1CN1CCO[C@H]2CN(C(=O)C3CCOCC3)C[C@H]21 | -0.225
CCSCc1cccc(NC2CCN(C)C2=O)c1 (stereo not given) | 19.7
COc1ccc(CN2CC[C@H]3[C@H]2CC(=O)N3Cc2cccc(C)n2)cc1 | -7.27
CCNc1ncc(CN(Cc2ccccc2)CC(C)CO)cn1 (stereo not given) | -4.08
Cc1nc(CN2CCC3(CC2)NC(=O)CC3c2ccccc2)cs1 (stereo not given) | -2.14
CC1N(C)C(=O)COC12CCN(C(=O)CCc1ccccc1)CC2 (stereo not given) | 5.92
COc1ncccc1CN1Cc2nccn2CC(CN2CCCC2)C1 (stereo not given) | -2.53
Cc1csc(C(C#N)C(=O)NCc2ccccc2)n1 (stereo not given) | -6.71
O=C1CNCC(C(=O)N2CC(Oc3ccccc3Cl)C2)N1 (stereo not given) | -7.25
O=C(CN1C(=O)CCC1=O)NCc1cc(C2CC2)n(C2CCCC2)n1 | -2.61
CC(O)CN1CCC(CNCc2ccccc2OC(F)(F)F)CC1 (stereo not given) | 2.51
Fc1cnc(N2CCCn3c(nnc3Cn3cccc3)C2)nc1 | 27.5

SMILES | cytotoxicity at 70.5 h [%]
O=C1CC[C@H]2[C@H](CCN2C(=O)C2CCOC2)N1Cc1ccncc1 (stereo not given in full) | -20.6
O=C(NCC1SCCc2ccccc21)c1cscn1 (stereo not given) | -13.5
O=C(NCC1CCOC1)c1csc(-c2cccc(Cl)c2)n1 (stereo not given) | 1.75
Cc1nn(C)cc1CN(C)C(=O)c1ccncc1 | 2.69
Cc1cnn(CC2CCCN2Cc2coc(-c3cccs3)n2)c1 (stereo not given) | -0.977
CC(C)(C)C(=O)N1C[C@H](c2ccsc2)[C@H]2CN(Cc3cccs3)CC[C@H]21 | 0.661
Cc1cnn(CC2CN(CC(=O)Nc3ccnn3C(C)C)CCO2)c1 (stereo not given) | -6.91
CCN(CC1CCOC1)C(=O)Nc1ccc(N2CCCC2)nc1 (stereo not given) | -0.947
COCC(=O)NC1CCCN(c2ccc(C)cc2)C1=O (stereo not given) | -0.459
c1cnc(N2CCO[C@H]3CN(Cc4cc[nH]n4)C[C@H]32)cn1 | -7.22
CC(=O)N1CCN([C@@H]2CC[C@@H](NC(=O)c3ccc(C)nc3)[C@H]2O)CC1 | -5.95
O=C(c1ccc(O)cn1)N1CCOC(c2ccc(Cl)c(Cl)c2)C1 (stereo not given) | -3.33
Fc1cnccc1CN1CCC2(CCN2c2ncccn2)C1 (stereo not given) | -7.95
COCC(=O)N1CCC(c2cc3n(n2)[C@@H](C(F)(F)F)C[C@@H](C)N3)CC1 | -8.82
CN(C)CCO[C@H]1CN(C(=O)c2ccc(C#N)cc2)[C@@H]2COC[C@H]12 | -11
O=C(N1CCCC(n2cncn2)C1)C1(c2ccccc2F)CCCC1 (stereo not given) | -5.6
CCc1cnc(N)nc1NCc1ccc(OC)c(OC)c1 | -1.08
CN(C)C(=O)NC[C@H]1OC[C@@H]2CCN(Cc3ccoc3)C[C@@H]21 | 52.3
CN(C)C(=O)CN1CCC(c2cncc(-c3cccc(Cl)c3)n2)CC1 | -7.08
CS(=O)(=O)CCn1ccc(NC(=O)Cc2ccccc2F)n1 | 3.54
CCS(=O)(=O)N1CCC(c2nnc(CN3CCCCCC3)n2C)CC1 | -3.73
COCCNC(=O)Cn1c(-c2ccc(F)cc2)nc(C)c(CCO)c1=O | -2.18
O=C(C1CCOCC1)N1C[C@H]2CNC[C@H]2C1 | -1.57
NC(=O)C1CCN(C(=O)Cn2nc(-c3ccccc3)oc2=O)C1 (stereo not given) | -5.69
CCc1cnc(C)nc1NC(CC)c1cnn(C)c1 (stereo not given) | -2.39
O=C(NCc1ccnc(OCC(F)(F)F)c1)NCC1CCOC1 (stereo not given) | -15.8
